The subject of the series is N2a cells. Kind of series: MTT assay, cytotoxicity to N2a cells. In kind it is cell-based. Particulars: for cell death: 0.5 nM; for IC50: 72 hours, read-out: half-inhibitory concentration (IC50) on cell viability. On the procedure: This experiment mainly used the MTT assay to detect the toxicity of Aβ aggregates to neurons. The specific procedure was as follows: N2a cells were cultured in DMEM medium containing 10% FBS and 1% penicillin/streptomycin. The cells in the culture dish were digested with trypsin, centrifuged, and resuspended in the medium, and then inoculated in a 96-well plate, with about 5,000 cells/100 µL medium per well. After 12 hours, the cells were treated with a series of concentration gradients of sApo*3F and sAβos, and the same volume of solvent was added to the cells as a control. After 72 hours, 25 µL 5 mg/mL MTT was added to each well. After further culture at 37 °C for 3 hours, the medium was aspirated and 150 µL DMSO was added. The absorbance at 570 nm and 630 nm was measured using an MD-M5 microplate reader. The average value of six replicate wells was used for each sample and control, and each experiment was repeated three times. Cell viability was calculated by dividing the absorbance (background corrected) of the sample well with the absorbance (background corrected) of the well added with solvent.
In general terms: Tetrazolium assays rely on reduction of a dye to a coloured formazan, in cell work by metabolically active cells.

In turn, “sApo*3F: Aβo*3F prepared in vitro: Aβ monomers incubated 2 days, immunoprecipitated with the antibody 3F” yielded a cell death of 66%. Where the note is “MTT”, the “difference between the two IC50s (sAβos before immunoprecipitation vs sApo*3F)” value worked out at 340 fold and the IC50 was roughly 0.186 nM.
For the substance “sAβos: Aβos prepared in vitro, 10 µM Aβ, 2-day incubation, before immunoprecipitation”, the cell death result is “no substantial neurotoxic effect”. Where the note is “200 nM”, this substance displayed a cytotoxicity / neurotoxicity of 70%. Further, the IC50 (MTT) is roughly 63.3 nM.

These data come from patent EP4571315A1, “DIAGNOSTIC USE OF HIGHLY TOXIC AMYLOID OLIGOMER” (Shen Zhen Wisdom Biopharm Co., Ltd., priority 2022, dated 2024).
